# Results published in US12312599B2, “Methods, compositions, and kits for producing beige adipocytes and treating metabolic disorders” (MaineHealth, priority 2018, dated 2025).
# Assays:
# Assay type in all cases: cell-based, human
# iPSC-beige adipocytes [1] = assay: UCP1 qPCR after β3-adrenergic stimulation of iPSC-beige adipocytes
# iPSC-beige adipocytes [2] = assay: Seahorse XF oxygen consumption after β3-adrenergic stimulation; settings: adipocytes whitened 4 days without rosiglitazone, CL316,243 for 4 hr
# iPSC-beige adipocytes [3] = assay: Fatty acid uptake assay; settings: adipocytes whitened 6 days without rosiglitazone
# Experimental: Following washes, add secondary antibody diluted at a ratio of 1:1200 and incubate 2 hours at room temperature. • 5. Remove secondary antibody solution and wash 3 times with TBS with Tween 20 (5 minutes per wash). • 6. Develop membrane with Clarity™ Western ECL Substrate and detect using a Bio-Rad ChemiDoc Touch Imaging System. • 7. Quantitation of protein was performed using Image Lab software (Bio-Rad). Fatty Acid Uptake Assay Preparation • 1. Expand and grow iPSC-beige and whitened iPSC-beige adipocytes to full maturity in a 96 well plate (day 12) (see Generation of beige adipocytes above). To whiten iPSC-beige adipocytes for this assay, induce iPSC-MSCs for three days in the induction cocktail as described in the differentiation protocol (see Generation of beige adipocytes above). Following three days of induction, replace beige induction medium with DMEM containing 10% FBS and insulin ([…]). Change 100% of medium every 3 days until full maturity (day 12). • 2. On day 12, replace culture medium with DMEM containing 10% FBS. Change 100% of medium every 2 days for 6 days. • 3. Following 6 days of rest, remove culture medium and replace with […] of serum free DMEM containing 0.2% BSA. Incubate the plate at 37° C. in a 5% CO2 incubator for 1 hour. • 4. After 1 hour, add CL316,243 ([…]) to designated wells. Allow cells to incubate for 2 hours. • 5. […] Quantification and Statistical Analysis
# iPSCs = assay: Mesoderm induction of iPSCs: FOXF1 and IRX3 expression
# Experimental: PSCs were cultured in monolayer on hESC-qualified Matrigel-coated plates (Corning) and expanded in NutriStem hPSC XF Medium (Stemgent) and passaged with ReLeSR passaging reagent (STEMCELL Technologies). For mesoderm induction (Day 0), PSC colonies was dissociated with TrypLE cell dissociation reagent (Thermofisher) and plated on Matrigel coated plates in NutriStem medium containing 10 μM Y-27632 Rho kinase inhibitor (Calbiochem). The following day (Day 1), NutriStem medium was replaced with STEMdiff Mesoderm Induction Medium (MIM) (STEMCELL Technologies) and changed each day until day 5.
# Note: Only use Y-27632 stock solutions that have been resuspended in DMSO. […] Conduct Mesoderm induction of iPSC in a laminar flow cabinet. • 3. Expand cells in NutriStem hPSC XF Medium overnight and change 100% of the medium without Y-27632 every 24 hours in a laminar flow cabinet for cell culture. When changing media, tilt plate up and allow media to pool at the bottom of wells. Aspirate the pooled medium without touching the surface of the plate. Replace with medium warmed to room temperature by pipetting 2 ml down the side of the wells. Cell Passaging • 1. Expand cell colonies until they have reached 70-80% confluence in high-density areas of the wells. High-density accumulation can occur along the edges of the well as well as the middle. Cells permitted to reach high density will lose their potential for differentiation after multiple passages. • 2. Prior to cell passage, warm cell wash buffer and NutriStem hPSC XF Medium to room temperature. Conduct cell passage in a laminar flow cabinet. • 3. Aspirate NutriStem hPSC XF Medium from wells with vacuum aspirator and wash with PBS without calcium or magnesium. Remove PBS and add 1 ml of ReLeSR reagent to side of well. Agitate plate to allow ReLeSR reagent to spread evenly on the surface. • 4. Aspirate ReLeSR reagent with vacuum aspirator after 30 seconds, which will leave behind a thin film of liquid. Incubate plate at 37° C. for 5-8 minutes undisturbed. • 5. Add fresh NutriStem hPSC XF Medium to wells and gently remove the cell colonies from the plate. Check that most cells have been dislodged from the plate surface with a light microscope. If not, rewash with more medium as needed. • 6. Transfer cell colony suspension in NutriStem hPSC XF Medium to Matrigel coated culture plates for further expansion (see Cell plating and culture above). Generation of iPSC Derived MSCs Mesoderm Induction of iPSC • 1. When iPSCs have reached 70-80% confluence, they will need to be passaged as single cells rather than colonies prior to mesoderm induction (day 0). • 2. Prepare for passage by warming cell wash buffer and NutriStem hPSC XF medium to room temperature and add Y-27632 Rho kinase inhibitor to medium at a final concentration of 10 μM. […]
# FD-MSCs = assay: Beige adipogenic precursor markers in FD-MSCs (flow cytometry, immunostaining, qPCR); settings: 2 days pretreatment
# Experimental: All assays were performed between 7 and 15 passages. For osteocyte differentiation, mature MSCs were grown in 24 well culture plates to 100% confluency in MesenCult-ACF and induced to differentiate in OsteoLife Complete Osteogenesis Medium (Lifeline Cell Technology) for 21 days prior to staining with Lifeline Alizarin Red Stain to visualize calcium deposition. For chondrocyte differentiation. For beige adipogenic precursor generation, cells were grown in 24 well culture plates to 90% confluence and treated with 5 uM SB413542 (Sigma) and 10 nM human IL-4 (Peprotech) for 2 days. For beige adipogenic induction, adipogenic precursors are differentiated for 3 days with adipogenic medium consisting of T3 (2 nM), insulin (170 nM), rosiglitazone (1 μM), SB413542 (5 uM), IBMX (0.5 mM), dexamethasone (5 μM) and indomethacin (125 μM) in EGM-2 medium (Lonza) supplemented with the BulletKit minus FGF2 (modified from^33). Thereafter, cells are maintained in adipogenic medium without IBMX, dexamethasone and indomethacin. The medium was changed every 3 days and adipocytes were fully differentiated by 9-12 days as determined by lipid accumulation and peak expression of UCP1.
# Cell Isolation, Expansion and Differentiation of Interscapular Brown Adipose Tissue Preadipocytes • 1. Prior to adipose cell isolation, warm DMEM, FBS and cell wash buffer to room temperature. • 2. In a laminar flow cabinet for cell culture, place 5 g of adipose tissue on a 100×20 mm dish. Suspend tissue in 1 mL of Adipose Tissue Dissociation Kit enzyme digest cocktail and finely mince with a razorblade. • 3. Transfer cell suspension slurry to a 5 mL polystyrene round bottom tube and add an additional 1.5 mL of enzyme digest cocktail to tube. • 4. Incubate tube at 37° C. on a rotating nutator for 30 minutes. During incubation period, briefly vortex sample for 5 s in 10-minute intervals. • 5. Transfer cells to a 15 mL tube and add 5 mL of DMEM. Filter cell suspension through a 100 μm strainer into a new 15 mL tube and centrifuge at 300 g for 5 minutes to form a pellet. • 6. Remove supernatant and leave behind […] of DMEM. […]
molecule,measurement,setting,value
"C[C@H](Cc1ccc2c(c1)OC(C(=O)[O-])(C(=O)[O-])O2)NC[C@H](O)c1cccc(Cl)c1.[Na+].[Na+] [CL316,243]",effect on UCP1 expression,"iPSC-beige adipocytes [1]; during initial differentiation, in the presence of rosiglitazone",masked or inhibitory
same,UCP1 expression,"iPSC-beige adipocytes [1]; during initial differentiation, without rosiglitazone",increased
same,UCP1 expression,"iPSC-beige adipocytes [1]; mature iPSC-beige adipocytes, CL316,243 1 μM, 4 hr",increased expression
same,overall respiration and proton leak,iPSC-beige adipocytes [2],increased overall respiration and proton leak
same,fatty acid (FA) uptake,iPSC-beige adipocytes [3],increased
Cc1c[nH]c(-c2cnc(NCCNc3ccc(C#N)cn3)nc2-c2ccc(Cl)cc2Cl)n1 [CHIR],FOXF1 protein compared to StemDiff MIM,iPSCs; 1.5 μM CHIR in combination with VEGF and BMP4,significant increase
same,expression of FOXF1 (qPCR),iPSCs; CHIR raised to 5 μM in combination with BMP4 and VEGF,decrease
"IL-4: human IL-4 (Peprotech), used at 10 nM (protein, UniProt P05112 25-153, looked up) Interleukin-4: HKCDITLQEIIKTLNSLTEQKTLCTELTVTDIFAASKNTTEKETFCRAATVLRQFYSHHEKDTRCLGATAQQFHRHKQLIRFLKRLDRNLWGLAGLNSCPVKEANQSTLENFLERLKTIMREKYSKCSS",transcription of beige adipogenic precursor markers PDGFRα and EBF2,FD-MSCs,little effect
